In patent US20060229358A1, “Pharmaceutical composition containing flavonoids” (Taipei Medical University, priority 2005, published 2006):

The compounds below were run against T1, PDE2 (Cavia porcellus, UniProt A0A286XUV5) (assay: Inhibition of cyclic nucleotide PDE activity (Assay I), PDE2). Settings: not given.
T1 sequence (A0A286XUV5 22-936): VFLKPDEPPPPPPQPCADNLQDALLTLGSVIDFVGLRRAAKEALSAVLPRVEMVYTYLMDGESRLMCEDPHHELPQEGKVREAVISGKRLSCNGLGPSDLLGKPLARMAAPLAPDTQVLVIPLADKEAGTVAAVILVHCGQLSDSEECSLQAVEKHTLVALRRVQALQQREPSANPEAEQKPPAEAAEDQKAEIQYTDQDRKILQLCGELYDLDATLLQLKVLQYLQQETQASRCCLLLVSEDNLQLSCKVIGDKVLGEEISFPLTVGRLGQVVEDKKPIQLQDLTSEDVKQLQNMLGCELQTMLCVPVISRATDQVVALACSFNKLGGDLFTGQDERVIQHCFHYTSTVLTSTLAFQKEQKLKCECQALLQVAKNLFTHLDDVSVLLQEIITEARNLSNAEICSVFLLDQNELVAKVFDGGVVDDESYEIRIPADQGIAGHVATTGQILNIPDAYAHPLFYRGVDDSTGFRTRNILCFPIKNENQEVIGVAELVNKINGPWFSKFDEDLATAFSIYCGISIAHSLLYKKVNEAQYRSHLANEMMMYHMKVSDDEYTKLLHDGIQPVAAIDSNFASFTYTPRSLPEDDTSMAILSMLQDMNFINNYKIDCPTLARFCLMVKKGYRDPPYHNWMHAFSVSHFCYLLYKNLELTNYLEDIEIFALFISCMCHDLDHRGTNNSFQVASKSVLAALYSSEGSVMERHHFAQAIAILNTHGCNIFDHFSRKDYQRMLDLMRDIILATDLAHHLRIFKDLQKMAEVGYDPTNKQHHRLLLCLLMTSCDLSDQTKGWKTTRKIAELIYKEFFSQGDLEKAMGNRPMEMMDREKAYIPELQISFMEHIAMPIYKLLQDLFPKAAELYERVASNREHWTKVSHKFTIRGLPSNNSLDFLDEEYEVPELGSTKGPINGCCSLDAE
Assay type: biochemical, guinea pig
Protocol: Under a protocol approved by the Animal Care and Use Committee of Taipei Medical University, five male guinea pigs (Hartley), weighing 500-600 g, were sacrificed. The lungs (15 g) or hearts (4 g) taken therefrom were chopped into small pieces and homogenized with a glass/teflon homogenizer (Glas-Col, Terre Haute, Ind., USA) in 10 volumes of cold medium (pH 6.5) containing 20 mM Bis-Tris, 2 mM benzamidine, 2 mM EDTA, 50 mM sodium chloride, 0.1 mM phenylmethanesulfonyl fluoride (PMSF), and 1 mM dithiothreitol. At 4° C., the homogenate was centrifuged at 170 g for 15 min, and the supernatant thereof was then re-centrifuged at 40,000 g for 30 min. […] The column was washed with two bed volumes of homogenate buffer to remove unbound material, where the resin beads therein will bind with proteins, such as PDE proteins. Proteins bound to the Q-sepharose beads were eluted with various concentrations (0.23, 0.34, 0.44, 0.69, and 1.00 M) of NaCl dissolved in homogenate buffer (for each concentration, 40-50 mL elution buffer were applied) at a flow rate of 30 ml/h. Fractions (3 ml each) were collected, and ethylene glycol (EG) was added thereto until a final concentration of 30% (v/v). And then the samples were frozen at −70° C.
The activities of PDE1-5 in the homogenate were measured with a two-step procedure according to the method of Thompson and Appleman, using cAMP with [^3H]-cAMP or cGMP with [^3 H]-cGMP as substrates. The PDE enzyme prepared (25 μl) with 10 μl inhibitor or the solvents therefor was incubated for 30 min at 37° C. in a total assay buffer, where the final volume of the assay is amounted to 100 μl. In accordance with the features of the PDE isozymes, the assay buffer contains 50 mM Tris/HCl (pH 7.4), 3 mM MgCl2, 1 mM dithiothreitol, and 0.05% BSA, and optionally contains 1 uM cAMP with 0.2 μCi [^3H]-cAMP as a substrate alone or in the presence of 0.1 unit calmodulin with 10 μM CaCl2, or 5 μM cGMP, and 1 μM cGMP with 0.2 μCi [^3H]-cGMP as another substrate alone or in the presence of 0.1 unit calmodulin with 10 μM CaCl2.
The PDE enzyme and the inhibitors (or their solvent) therefor were mixed and incubated on ice for 30 min previously, and then mixed with the assay buffer. The assay was initiated by transferring the mixture to a water bath at 37° C. Following the other 30 min incubation, the reaction was stopped by transferring the reaction vessel to a bath of boiling water for 3 min. After cooling on ice, 20 μl of the 1 mg/ml of Crotalus atrox venom was added to the reaction mixture, and the mixture was incubated at 37° C. for 10 min. The uncatalyzed substrates, such as cAMP, [^3H]-cAMP, cGMP, or [^3H]-cGMP were removed by the addition of 500 μl of a 1-in-1 Tris-HCl (40 mM) buffer suspension of Dowex resin (1×8-200) with incubation on ice for 30 min, since the bindings of the cyclic nucleotides and the resin. Each tube was then centrifuged for 2 min at 6000 rpm, and 100 μl of the supernatant was removed and counted by a β-counter for calculating the enzyme (PDEs) activity.
The IC50 values of flavonoids and various reference drugs were calculated using non-linear regression analysis by the software SigmaPlot 7.0 (Sigma Chemical, St. Louis Mo., USA). All values are shown as the mean±S.E.M. Differences among values, which are equal or greater to three groups, were statistically calculated by one-way analysis of variance (ANOVA), and then determined by the least significant difference (LSD). The difference between two values, however, was determined by use of Student's unpaired t-test. Differences were considered statistically significant if the P-value was less than 0.05.

Structure (SMILES)	IC50 [µM]
COc1cc(O)c2c(=O)c(-c3ccc(O)cc3)coc2c1 [Prunetin]	> 100

Same assay, conditions: mean ± S.E.M. (n); read-out: IC50 on phosphodiesterase isozyme 2

Structure (SMILES)	IC50 [µM]
O=c1cc(-c2ccc(O)cc2)oc2cc(O)cc(O)c12 [Apigenin]	16.7 ± 6.3
COc1ccc(-c2coc3cc(O)cc(O)c3c2=O)cc1 [Biochanin A]	27.9 ± 4.1
O=c1cc(-c2ccccc2)oc2cc(O)cc(O)c12 [Chrysin]	> 100
O=c1c(-c2ccc(O)cc2)coc2cc(O)ccc12 [Daidzein]	> 100
O=C1CC(c2ccc(O)c(O)c2)Oc2cc(O)cc(O)c21 (stereo not drawn) [Eriodictyol]	> 100
O=c1c(-c2ccc(O)cc2)coc2cc(O)cc(O)c12 [Genistein]	1.7 ± 0.2
COc1ccc(C2CC(=O)c3c(O)cc(O)cc3O2)cc1O (stereo not drawn) [Hesperetin]	> 100
O=c1cc(-c2ccc(O)c(O)c2)oc2cc(O[C@@H]3O[C@H](CO)[C@@H](O)[C@H](O)[C@H]3O)cc(O)c12 [Luteolin-7-glucoside]	35.1 ± 0.2
O=c1cc(-c2ccc(O)c(O)c2)oc2cc(O)cc(O)c12 [Luteolin]	13.3 ± 0.8
O=c1c(O)c(-c2cc(O)c(O)c(O)c2)oc2cc(O)cc(O)c12 [Myricetin]	12.8 ± 0.6
O=c1c(O)c(-c2ccc(O)c(O)c2)oc2cc(O)cc(O)c12 [Quercetin]	17.9 ± 3.4
